Common to all, as to format: cell-based
Test [1] relates to Mannheimia haemolytica MH 6374 (ATCC 33396, reference strain). The experiment in a line: MIC, broth-microdilution (CLSI VET01-A4), strain MH 6374. Particulars: Mannheimia haemolytica strain MH 6374, broth-microdilution; unit assumed. Here is the method: (§1) For example, representative compounds were tested against ***, Mannheimia haemolytica and Pasteurella multocida, using the conventional broth-dilution assay.
(§2) The Minimum inhibitory concentrations (MIC) of compounds according to the invention for a number of veterinary bacterial pathogens were determined by the broth-microdilution method according to CLSI document VET01-A4.
(§3) Microdilution trays containing a doubling dilution series of the test compound were used for the tests. The MIC results were interpreted according to the CLSI documents VET01-S3. The lowest concentration of compound at which no visible growth (i.e. no turbidity) detected by the unaided eye was recorded as the MIC.

Test [2] concerns Mannheimia haemolytica MH 10720 (154, BRD field isolate). The experiment in a line: MIC, broth-microdilution (CLSI VET01-A4), strain MH 10720. To be noted: Mannheimia haemolytica strain MH 10720, broth-microdilution; unit assumed. Here is the method: as §1, §2, §3
Test [3] relates to Pasteurella multocida PM 6267 (P 2225 (L386), reference strain, mouse infection strain). The experiment in a line: MIC, broth-microdilution (CLSI VET01-A4), strain PM 6267. Particulars: Pasteurella multocida strain PM 6267, broth-microdilution; unit assumed. Here is the method: as §1, §2, §3
Background: Dilution methods test growth across graded concentrations, often in twofold steps.

The subject of test [4] is Mannheimia haemolytica MH 12587 (1071, BRD field isolate, macrolide-resistance: erm+, E+). The experiment in a line: MIC, broth-microdilution (CLSI VET01-A4), strain MH 12587. To be noted: Mannheimia haemolytica strain MH 12587, broth-microdilution; unit assumed. Here is the method:
as §1, §2, §3

Test [5] relates to Mannheimia haemolytica MH 13065 (XB0446-6003.9, BRD field isolate). The experiment in a line: MIC, broth-microdilution (CLSI VET01-A4), strain MH 13065. To be noted: Mannheimia haemolytica strain MH 13065, broth-microdilution; unit assumed. Here is the method: as §1, §2, §3
Test [6] has as its system Mannheimia haemolytica MH 6357 (M7/2, reference strain, cattle infection strain). The experiment in a line: MIC, broth-microdilution (CLSI VET01-A4), strain MH 6357. Particulars: Mannheimia haemolytica strain MH 6357, broth-microdilution; unit assumed. Here is the method: as §1, §2, §3
Test [7] has as its system Mannheimia haemolytica MH 13093 (XB0472-6014.1, BRD field isolate). The experiment in a line: MIC, broth-microdilution (CLSI VET01-A4), strain MH 13093. Particulars: Mannheimia haemolytica strain MH 13093, broth-microdilution; unit assumed. The protocol:
as §1, §2, §3

For test [8], the system named is Pasteurella multocida PM 12080 (IV102277-0093, BRD field isolate). The experiment in a line: MIC, broth-microdilution (CLSI VET01-A4), strain PM 12080. To be noted: Pasteurella multocida strain PM 12080, broth-microdilution; unit assumed. The protocol:
as §1, §2, §3

Test [9] concerns Pasteurella multocida PM 10775 (080130003051, BRD field isolate). The experiment in a line: MIC, broth-microdilution (CLSI VET01-A4), strain PM 10775. To be noted: Pasteurella multocida strain PM 10775, broth-microdilution; unit assumed. Here is the method:
as §1, §2, §3

≈ marks a conversion by molar mass, not a printed value.

As for `CC(C)[C@H](NC(=O)c1ccc(C#Cc2ccc(CN3CCOCC3)cc2)cc1)C(=O)NO` [Compound 98], the MIC MH 6374 in test [1] came out at 1.6 µg/mL (≈ 3.67 µM). This molecule also returned an MIC MH 10720 in [2] of 0.4 µg/mL (≈ 0.918 µM). The MIC PM 6267 in test [3] was at most 0.1 µg/mL. For the same molecule, the MIC MH 12587 in [4] came to 1.6 µg/mL (≈ 3.67 µM). Also, in test [5], the MIC MH 13065 is 1.6 µg/mL (≈ 3.67 µM). The same molecule displayed an MIC MH 6357 in [6] of 0.8 µg/mL (≈ 1.84 µM). Also, the MIC MH 13093 in [7] came to 1.6 µg/mL (≈ 3.67 µM). For the same molecule, the MIC PM 12080 in test [8] was at most 0.1 µg/mL. In test [9], this molecule registered an MIC PM 10775 of at most 0.1 µg/mL.
`CC(C)[C@H](NC(=O)c1ccc(C#Cc2ccc(CN3CCS(=O)(=O)CC3)cc2)cc1)C(=O)NO` [Compound 99] gave an MIC MH 6374 in test [1] of 6.3 µg/mL (≈ 13 µM). The same molecule yielded an MIC MH 10720 in test [2] of 0.8 µg/mL (≈ 1.65 µM). This molecule also registered an MIC PM 6267 in [3] of at most 0.1 µg/mL. For the same molecule, in test [4], the MIC MH 12587 is 12.5 µg/mL (≈ 25.8 µM). In test [5], this molecule gave an MIC MH 13065 of 6.3 µg/mL (≈ 13 µM). The molecule also had an MIC MH 6357 in [6] of 3.1 µg/mL (≈ 6.41 µM). The molecule further showed an MIC MH 13093 in test [7] of 6.3 µg/mL (≈ 13 µM). The molecule further had an MIC PM 12080 in test [8] of 0.2 µg/mL (≈ 0.414 µM). In [9], the MIC PM 10775 is at most 0.1 µg/mL.
With `CC(C)[C@H](NC(=O)c1ccc(C#Cc2ccc(CN3CCC(c4ccccc4)CC3)cc2)cc1)C(=O)NO` [Compound 100], the MIC MH 6374 in test [1] came out at 6.3 µg/mL (≈ 12.4 µM). Besides, in test [2], the MIC MH 10720 is 0.8 µg/mL (≈ 1.57 µM). This molecule yielded an MIC PM 6267 in test [3] of 0.4 µg/mL (≈ 0.785 µM). The molecule further displayed an MIC MH 12587 in test [4] of 12.5 µg/mL (≈ 24.5 µM). Moreover, in test [5], the MIC MH 13065 is 3.1 µg/mL (≈ 6.08 µM). This molecule also displayed an MIC MH 6357 in test [6] of 3.1 µg/mL (≈ 6.08 µM). For the same molecule, the MIC MH 13093 in test [7] worked out at 6.3 µg/mL (≈ 12.4 µM). The molecule also had an MIC PM 12080 in [8] of 0.8 µg/mL (≈ 1.57 µM). The molecule also returned an MIC PM 10775 in [9] of at most 0.1 µg/mL.
In turn, `CC(C)[C@H](NC(=O)c1ccc(C#Cc2ccc(CN3CCN(c4ccccn4)CC3)cc2)cc1)C(=O)NO` [Compound 101] gave an MIC MH 6374 in [1] of 3.1 µg/mL (≈ 6.06 µM). In test [2], this molecule registered an MIC MH 10720 of 0.8 µg/mL (≈ 1.56 µM). The molecule also displayed an MIC PM 6267 in test [3] of 0.4 µg/mL (≈ 0.782 µM). In test [4], this molecule gave an MIC MH 12587 of 12.5 µg/mL (≈ 24.4 µM). The molecule also displayed an MIC MH 13065 in test [5] of 3.1 µg/mL (≈ 6.06 µM). In [6], this molecule came in with an MIC MH 6357 of 3.1 µg/mL (≈ 6.06 µM). Further, in test [7], the MIC MH 13093 amounted to 3.1 µg/mL (≈ 6.06 µM). Besides, in test [8], the MIC PM 12080 was found to be 0.8 µg/mL (≈ 1.56 µM). The same molecule yielded an MIC PM 10775 in test [9] of at most 0.1 µg/mL.
In [1], `CC(C)[C@H](NC(=O)c1ccc(C#Cc2ccc(CN3CCc4ccccc4C3)cc2)cc1)C(=O)NO` [Compound 102] displayed an MIC MH 6374 of 3.1 µg/mL (≈ 6.44 µM). Besides, in test [2], the MIC MH 10720 came out at 0.8 µg/mL (≈ 1.66 µM). The MIC PM 6267 in [3] was found to be 0.4 µg/mL (≈ 0.831 µM). In addition, in test [4], the MIC MH 12587 turned out to be 12.5 µg/mL (≈ 26 µM). In test [5], this molecule returned an MIC MH 13065 of 3.1 µg/mL (≈ 6.44 µM). The molecule further gave an MIC MH 6357 in test [6] of 3.1 µg/mL (≈ 6.44 µM). Also, in test [7], the MIC MH 13093 was determined as 6.3 µg/mL (≈ 13.1 µM). The MIC PM 12080 in [8] came out at 0.8 µg/mL (≈ 1.66 µM). In test [9], this molecule displayed an MIC PM 10775 of at most 0.1 µg/mL.
`CC(C)[C@H](NC(=O)c1ccc(C#Cc2ccc(CNCc3ccccc3)cc2)cc1)C(=O)NO` [Compound 104] registered an MIC MH 6374 in test [1] of 0.4 µg/mL (≈ 0.878 µM). This molecule returned an MIC MH 10720 in test [2] of at most 0.1 µg/mL. Also, the MIC PM 6267 in test [3] is at most 0.1 µg/mL. Further, in test [4], the MIC MH 12587 came to 1.6 µg/mL (≈ 3.51 µM). Also, the MIC MH 13065 in test [5] stood at 0.4 µg/mL (≈ 0.878 µM). The molecule also yielded an MIC MH 6357 in [6] of 0.4 µg/mL (≈ 0.878 µM). In test [7], this molecule displayed an MIC MH 13093 of 0.8 µg/mL (≈ 1.76 µM). In test [8], the MIC PM 12080 was 0.4 µg/mL (≈ 0.878 µM). In test [9], the MIC PM 10775 is at most 0.1 µg/mL.
`CC(C)[C@H](NC(=O)c1ccc(C#Cc2ccc(CN(C)Cc3ccccc3)cc2)cc1)C(=O)NO` [Compound 105]: in [1], the MIC MH 6374 is 3.1 µg/mL (≈ 6.6 µM). In [2], this molecule registered an MIC MH 10720 of 0.8 µg/mL (≈ 1.7 µM). The molecule also came in with an MIC PM 6267 in [3] of 0.2 µg/mL (≈ 0.426 µM). Moreover, the MIC MH 12587 in test [4] amounted to 6.3 µg/mL (≈ 13.4 µM). This molecule yielded an MIC MH 13065 in test [5] of 3.1 µg/mL (≈ 6.6 µM). In test [6], this molecule gave an MIC MH 6357 of 6.3 µg/mL (≈ 13.4 µM). For the same molecule, the MIC MH 13093 in [7] turned out to be 3.1 µg/mL (≈ 6.6 µM). This molecule also displayed an MIC PM 12080 in test [8] of 0.8 µg/mL (≈ 1.7 µM). This molecule had an MIC PM 10775 in [9] of at most 0.1 µg/mL.
As for `CC(C)[C@H](NC(=O)c1ccc(C#Cc2ccc(CNCc3ccc(Cl)cc3)cc2)cc1)C(=O)NO` [Compound 106], the MIC MH 6374 in test [1] stood at 0.8 µg/mL (≈ 1.63 µM). Besides, the MIC MH 10720 in test [2] was 0.2 µg/mL (≈ 0.408 µM). Moreover, the MIC PM 6267 in [3] worked out at 0.2 µg/mL (≈ 0.408 µM). The same molecule came in with an MIC MH 12587 in [4] of 1.6 µg/mL (≈ 3.27 µM). Moreover, the MIC MH 13065 in test [5] came out at 0.8 µg/mL (≈ 1.63 µM). In test [6], this molecule returned an MIC MH 6357 of 0.8 µg/mL (≈ 1.63 µM). The molecule also showed an MIC MH 13093 in [7] of 1.6 µg/mL (≈ 3.27 µM). The MIC PM 12080 in test [8] was 0.8 µg/mL (≈ 1.63 µM). Moreover, in test [9], the MIC PM 10775 is at most 0.1 µg/mL.
